Data from ChEMBL document CHEMBL3351515, “α-Hexylcinnamaldehyde inhibits the genotoxicity of environmental pollutants in the bacterial reverse mutation assay” (2014).

Columns and labels:
[1] = test system: Salmonella typhimurium; assay: Antimutagenic activity against sodium azide-induced revertant colonies in Salmonella typhimurium TA100 assessed as number of revertant colonies measured pretreatment at 9 uM (reference value: 1968 +/- 46.9) in absence of mammalian S9 fraction; format: functional, Salmonella enterica subsp. enterica serovar Typhimurium
[2] = test system: Salmonella typhimurium; assay: Antimutagenic activity against sodium azide-induced revertant colonies in Salmonella typhimurium TA100 assessed as number of revertant colonies measured pretreatment at 18 uM (reference value: 1968 +/- 46.9) in absence of mammalian S9 fraction; format: functional, Salmonella enterica subsp. enterica serovar Typhimurium
[3] = test system: Salmonella typhimurium; assay: Antimutagenic activity against sodium azide-induced revertant colonies in Salmonella typhimurium TA100 assessed as number of revertant colonies measured pretreatment at 180 uM (reference value: 1968 +/- 46.9) in absence of mammalian S9 fraction; format: functional, Salmonella enterica subsp. enterica serovar Typhimurium
[4] = test system: Salmonella typhimurium; assay: Antimutagenic activity against 2-aminoanthracene-induced revertant colonies in Salmonella typhimurium TA100 assessed as number of revertant colonies measured pretreatment at 90 uM (reference value: 481.3 +/- 5.3) in presence of mammalian S9 fraction; format: functional, Salmonella enterica subsp. enterica serovar Typhimurium
[5] = test system: Salmonella typhimurium; assay: Antimutagenic activity against 2-aminoanthracene-induced revertant colonies in Salmonella typhimurium TA100 assessed as number of revertant colonies measured pretreatment at 180 uM (reference value: 481.3 +/- 5.3) in presence of mammalian S9 fraction; format: functional, Salmonella enterica subsp. enterica serovar Typhimurium
[6] = test system: Salmonella typhimurium; assay: Antimutagenic activity against sodium azide-induced revertant colonies in Salmonella typhimurium TA100 assessed as number of revertant colonies measured cotreatment at 9 uM (reference value: 1588 +/- 55.6) in absence of mammalian S9 fraction; format: functional, Salmonella enterica subsp. enterica serovar Typhimurium
[7] = test system: Salmonella typhimurium; assay: Antimutagenic activity against sodium azide-induced revertant colonies in Salmonella typhimurium TA100 assessed as number of revertant colonies measured cotreatment at 18 uM (reference value: 1588 +/- 55.6) in absence of mammalian S9 fraction; format: functional, Salmonella enterica subsp. enterica serovar Typhimurium
[8] = test system: Salmonella typhimurium; assay: Antimutagenic activity against sodium azide-induced revertant colonies in Salmonella typhimurium TA100 assessed as number of revertant colonies measured cotreatment at 90 uM (reference value: 1588 +/- 55.6) in absence of mammalian S9 fraction; format: functional, Salmonella enterica subsp. enterica serovar Typhimurium
[9] = test system: Salmonella typhimurium; assay: Antimutagenic activity against sodium azide-induced revertant colonies in Salmonella typhimurium TA100 assessed as number of revertant colonies measured cotreatment at 900 uM (reference value: 1588 +/- 55.6) in absence of mammalian S9 fraction; format: functional, Salmonella enterica subsp. enterica serovar Typhimurium
[10] = test system: Salmonella typhimurium; assay: Antimutagenic activity against 2-aminoanthracene-induced revertant colonies in Salmonella typhimurium TA100 assessed as number of revertant colonies measured cotreatment at 900 uM (reference value: 457.9 +/- 16.74) in presence of mammalian S9 fraction; format: functional, Salmonella enterica subsp. enterica serovar Typhimurium
[11] = test system: Salmonella typhimurium; assay: Antimutagenic activity against 2-aminoanthracene-induced revertant colonies in Salmonella typhimurium TA100 assessed as number of revertant colonies measured post-treatment at 90 uM (reference value: 642.7 +/- 2.7) in presence of mammalian S9 fraction; format: functional, Salmonella enterica subsp. enterica serovar Typhimurium
[12] = test system: Salmonella typhimurium; assay: Antimutagenic activity against 2-aminoanthracene-induced revertant colonies in Salmonella typhimurium TA100 assessed as number of revertant colonies measured post-treatment at 180 uM (reference value: 642.7 +/- 2.7) in presence of mammalian S9 fraction; format: functional, Salmonella enterica subsp. enterica serovar Typhimurium
[13] = test system: Salmonella typhimurium; assay: Antimutagenic activity against 2-aminoanthracene-induced revertant colonies in Salmonella typhimurium TA100 assessed as number of revertant colonies measured post-treatment at 900 uM (reference value: 642.7 +/- 2.7) in presence of mammalian S9 fraction; format: functional, Salmonella enterica subsp. enterica serovar Typhimurium
[14] = test system: Escherichia coli; assay: Antimutagenic activity against methyl methansulfonate-induced revertant colonies in Escherichia coli WP2uvrA assessed as number of revertant colonies measured pretreatment at 18 uM (reference value: 466.7 +/- 40.4) in absence of mammalian S9 fraction; format: functional
[15] = test system: Escherichia coli; assay: Antimutagenic activity against methyl methansulfonate-induced revertant colonies in Escherichia coli WP2uvrA assessed as number of revertant colonies measured pretreatment at 90 uM (reference value: 466.7 +/- 40.4) in absence of mammalian S9 fraction; format: functional
[16] = test system: Escherichia coli; assay: Antimutagenic activity against methyl methansulfonate-induced revertant colonies in Escherichia coli WP2uvrA assessed as number of revertant colonies measured pretreatment at 180 uM (reference value: 466.7 +/- 40.4) in absence of mammalian S9 fraction; format: functional
[17] = test system: Escherichia coli; assay: Antimutagenic activity against methyl methansulfonate-induced revertant colonies in Escherichia coli WP2uvrA assessed as number of revertant colonies measured pretreatment at 900 uM (reference value: 466.7 +/- 40.4) in absence of mammalian S9 fraction; format: functional
[18] = test system: Escherichia coli; assay: Antimutagenic activity against 2-aminoanthracene-induced revertant colonies in Escherichia coli WP2uvrA assessed as number of revertant colonies measured pretreatment at 9 uM (reference value: 178.7 +/- 11.8) in presence of mammalian S9 fraction; format: functional
[19] = test system: Escherichia coli; assay: Antimutagenic activity against 2-aminoanthracene-induced revertant colonies in Escherichia coli WP2uvrA assessed as number of revertant colonies measured pretreatment at 18 uM (reference value: 178.7 +/- 11.8) in presence of mammalian S9 fraction; format: functional
[20] = test system: Escherichia coli; assay: Antimutagenic activity against methyl methansulfonate-induced revertant colonies in Escherichia coli WP2uvrA assessed as number of revertant colonies measured cotreatment at 90 uM (reference value: 485.3 +/- 17.5) in absence of mammalian S9 fraction; format: functional
[21] = test system: Escherichia coli; assay: Antimutagenic activity against methyl methansulfonate-induced revertant colonies in Escherichia coli WP2uvrA assessed as number of revertant colonies measured cotreatment at 180 uM (reference value: 485.3 +/- 17.5) in absence of mammalian S9 fraction; format: functional
[22] = test system: Escherichia coli; assay: Antimutagenic activity against 2-aminoanthracene-induced revertant colonies in Escherichia coli WP2uvrA assessed as number of revertant colonies measured cotreatment at 900 uM (reference value: 366 +/- 10.3) in presence of mammalian S9 fraction; format: functional
[23] = test system: Escherichia coli; assay: Antimutagenic activity against methyl methansulfonate-induced revertant colonies in Escherichia coli WP2uvrA assessed as number of revertant colonies measured post-treatment at 90 uM (reference value: 726.7 +/- 12.7) in absence of mammalian S9 fraction; format: functional
[24] = test system: Escherichia coli; assay: Antimutagenic activity against 2-aminoanthracene-induced revertant colonies in Escherichia coli WP2uvrA assessed as number of revertant colonies measured post-treatment at 9 uM (reference value: 308 +/- 4) in presence of mammalian S9 fraction; format: functional
[25] = test system: Salmonella typhimurium; assay: Antimutagenic activity against 2-nitrofluorene-induced revertant colonies in Salmonella typhimurium TA98 assessed as inhibition of mutagenicity measured at 90 to 180 uM; format: functional, Salmonella enterica subsp. enterica serovar Typhimurium
[26] = test system: Salmonella typhimurium; assay: Antimutagenic activity against 1,8-dinitropyrene-induced revertant colonies in Salmonella typhimurium TA98 assessed as inhibition of mutagenicity measured at 9 to 18 uM; format: functional, Salmonella enterica subsp. enterica serovar Typhimurium
[27] = test system: Salmonella typhimurium; assay: Antimutagenic activity against 4-nitroquinoline N-oxide-induced revertant colonies in Salmonella typhimurium TA98 assessed as inhibition of mutagenicity measured at 90 to 180 uM; format: functional, Salmonella enterica subsp. enterica serovar Typhimurium
[28] = test system: Salmonella typhimurium; assay: Antimutagenic activity against 1-nitropyrene-induced revertant colonies in Salmonella typhimurium TA98NR assessed as inhibition of mutagenicity measured at 90 to 180 uM; format: functional, Salmonella enterica subsp. enterica serovar Typhimurium
[29] = test system: Salmonella typhimurium; assay: Antimutagenic activity against 1-nitropyrene-induced revertant colonies in Salmonella typhimurium TA98 1,8 DNP assessed as inhibition of mutagenicity measured at 90 to 180 uM; format: functional, Salmonella enterica subsp. enterica serovar Typhimurium

## CCCCCC/C(C=O)=C\c1ccccc1
[1]
  Activity: 1877
[2]
  Activity: 1861
[3]
  Activity: 1797
[4]
  Activity: 454.7
[5]
  Activity: 384
[6]
  Activity: 1519
[7]
  Activity: 1501
[8]
  Activity: 1477
[9]
  Activity: 1451
[10]
  Activity: 347
[11]
  Activity: 530
[12]
  Activity: 520
[13]
  Activity: 481.3
[14]
  Activity: 451.3
[15]
  Activity: 436
[16]
  Activity: 376
[17]
  Activity: 365.3
[18]
  Activity: 170.7
[19]
  Activity: 166.7
[20]
  Activity: 466.7
[21]
  Activity: 448
[22]
  Activity: 293.5
[23]
  Activity: 517.3
[24]
  Activity: 294.7
[25]
  inhibition (INH): 25%
[26]
  inhibition (INH): <25%
[27]
  inhibition (INH): 25%
[28]
  inhibition (INH): 25%
[29]
  inhibition (INH): 25%
